Laboratory results: ChEMBL document CHEMBL1201862, “PubChem BioAssay data set” (2004)
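Briefly, cells in 96-well plates were exposed to five compound concentrations for 48 h, and endpoints were estimated by linear interpolation. GI50 is the concentration that inhibits growth by half.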 The source made the active and inactive calls. Cut-off read from the data, not from the text of the source: active = GI50 up to about 1.1 µM and inactive = higher.

Experiments:
Experiment in all cases: inhibition of tumour cell growth, NCI panel, 48 h
786-0 = system: 786-0
A549 = system: A549
ACHN = system: ACHN
CAKI-1 = system: CAKI-1
DU-145 = system: DU-145
EKVX = system: EKVX
HCC 2998 = system: HCC 2998
HCT-116 = system: HCT-116
HCT-15 = system: HCT-15
HL-60 = system: HL-60
HOP-62 = system: HOP-62
HOP-92 = system: HOP-92
Hs-578T = system: Hs-578T
K562 = system: K562
LOX IMVI = system: LOX IMVI
M14 = system: M14
MCF7 = system: MCF7
MDA-MB-231 = system: MDA-MB-231
MDA-MB-435 = system: MDA-MB-435
MDA-N = system: MDA-N
NCI-H23 = system: NCI-H23
NCI-H460 = system: NCI-H460
NCI/ADR-RES = system: NCI/ADR-RES
OVCAR-3 = system: OVCAR-3
OVCAR-4 = system: OVCAR-4
OVCAR-5 = system: OVCAR-5
OVCAR-8 = system: OVCAR-8
PC-3 = system: PC-3
RXF 393 = system: RXF 393
SF-268 = system: SF-268
SF-539 = system: SF-539
SK-MEL-28 = system: SK-MEL-28
SK-MEL-2 = system: SK-MEL-2
SN12C = system: SN12C
SNB-19 = system: SNB-19
T47D = system: T47D
TK-10 = system: TK-10
U-251 = system: U-251
UACC-62 = system: UACC-62
MOLT-4 = system: MOLT-4
Malme-3M = system: Malme-3M
NCI-H226 = system: NCI-H226
RPMI-8226 = system: RPMI-8226
SK-MEL-5 = system: SK-MEL-5
SNB-75 = system: SNB-75
SW-620 = system: SW-620
UACC-257 = system: UACC-257
A498 = system: A498
CCRF-CEM = system: CCRF-CEM
COLO 205 = system: COLO 205
HT-29 = system: HT-29
IGROV-1 = system: IGROV-1
KM12 = system: KM12
NCI-H522 = system: NCI-H522
SF-295 = system: SF-295
SK-OV-3 = system: SK-OV-3
SR = system: SR

Measured: GI50

N=C(N)c1ccc(OCCCCCOc2ccc(C(=N)N)cc2)cc1 [PENTAMIDINE]
inactive: 786-0 13.7 µM | A549 11 µM | ACHN 23.6 µM | CAKI-1 57 µM | DU-145 13.2 µM | EKVX 19.1 µM | HCC 2998 12.2 µM | HCT-116 22.4 µM | HL-60 19.3 µM | HOP-62 14.9 µM | HOP-92 28.5 µM | Hs-578T 14.9 µM | K562 3.45 µM | LOX IMVI 16.1 µM | M14 15.5 µM | MCF7 9.55 µM | MDA-MB-231 16.7 µM | MDA-MB-435 16.6 µM | MDA-N 15.6 µM | NCI-H23 10.4 µM | NCI-H460 2.98 µM | NCI/ADR-RES 71.6 µM | OVCAR-3 14.3 µM | OVCAR-4 10.9 µM | OVCAR-5 21 µM | OVCAR-8 13.7 µM | PC-3 18.5 µM | RXF 393 16.7 µM | SF-268 17.2 µM | SF-539 12.6 µM | SK-MEL-28 14.7 µM | SK-MEL-2 9.06 µM | SN12C 6.55 µM | SNB-19 10.7 µM | T47D 7.76 µM | TK-10 18.9 µM | U-251 8.26 µM | UACC-62 12.2 µM
24.8 µM: HCT-15

CC[C@@]1(O)C(=O)OCc2c1cc1n(c2=O)Cc2c-1nc1ccccc1c2/C=N/c1ccccc1N[C@@H]1c2cc3c(cc2[C@@H](c2cc(OC)c(O)c(OC)c2)[C@H]2C(=O)OC[C@@H]21)OCO3
active: 786-0 0.0213 µM | A549 0.0411 µM | ACHN < 0.0145 µM | CAKI-1 0.0225 µM | HCT-116 0.0469 µM | HOP-62 < 0.0189 µM | HOP-92 0.224 µM | LOX IMVI 0.0138 µM | M14 0.04 µM | MCF7 < 0.0115 µM | MOLT-4 < 0.01 µM | Malme-3M 0.394 µM | NCI-H226 0.0702 µM | NCI-H460 < 0.01 µM | PC-3 0.284 µM | RPMI-8226 0.27 µM | SF-268 0.0285 µM | SK-MEL-5 0.0955 µM | SNB-75 0.051 µM | SW-620 0.132 µM | T47D 0.0236 µM | U-251 0.296 µM | UACC-257 0.412 µM | UACC-62 0.0264 µM

CCOC(=O)c1c(SC(=O)C(C)(C)Oc2ccc(Cl)cc2)n(-c2ccccc2)c(=S)n(-c2ccccc2)c1=O
60.4 µM: HCT-15
inactive: 786-0 27.6 µM | A498 52.7 µM | A549 26.9 µM | ACHN 23.3 µM | CAKI-1 > 100 µM | CCRF-CEM 30.1 µM | COLO 205 20.7 µM | DU-145 45.2 µM | EKVX 52.8 µM | HCC 2998 > 100 µM | HCT-116 22.4 µM | HL-60 19.5 µM | HOP-62 26 µM | HOP-92 35.6 µM | HT-29 27.4 µM | Hs-578T 26.9 µM | IGROV-1 20.1 µM | K562 30.8 µM | KM12 24.8 µM | LOX IMVI 31.8 µM | M14 30.3 µM | MCF7 21.5 µM | MDA-MB-231 26.6 µM | MDA-MB-435 33 µM | MDA-N 48.8 µM | MOLT-4 24.9 µM | Malme-3M 23 µM | NCI-H226 40 µM | NCI-H23 61.7 µM | NCI-H460 22.1 µM | NCI-H522 39.8 µM | NCI/ADR-RES 58.6 µM | OVCAR-3 32.1 µM | OVCAR-4 34.4 µM | OVCAR-5 67 µM | OVCAR-8 19.6 µM | RXF 393 25.1 µM | SF-268 20.2 µM | SF-295 59.2 µM | SF-539 22.9 µM | SK-MEL-28 62.5 µM | SK-OV-3 45.6 µM | SN12C 25.2 µM | SNB-19 31.6 µM | SNB-75 51.4 µM | SR 23.9 µM | SW-620 22.6 µM | T47D 84.5 µM | TK-10 89.5 µM | U-251 19.6 µM | UACC-257 > 100 µM | UACC-62 67.8 µM
